Measured values reported in patent publication US6809208B2, “3-Arylbenzofuranones with electron-withdrawing substituents as stabilizers” (Ciba Specialty Chemicals Corporation, priority 2000, dated 2004).

Columns and labels:
[1] = Stabilization of multiple-extruded polypropylene; conditions: 0.05% of compound; heating zones 260, 270, 280° C.; measured at 230° C./2.16 kg; without compound 17.5
Method: 1.3 kg of polypropylene powder (Profax 6501), which has been prestabilized with 0.025% of Irganox®1076 (n-octadecyl 3-[3,5-di-tert-butyl-4-hydroxyphenyl]propionate) (melt index 3.2 g/10 min, measured at 230° C./2.16 kg) are blended with 0.05% of Irganox®1010 (pentaerythritol tetrakis[3-(3,5-di-tert-butyl-4-hydroxyphenyl)propionate]), 0.05% of calcium stearate, 0.03% of DHT 4A® (Kyowa Chemical Industry Co., Ltd., [Mg4.5Al2(OH)13CO3.3.5H2O]) and 0.05% of compound of Table 4. This blend is then extruded in an extruder having a cylinder diameter of 20 mm and a length of 400 mm at 100 rpm, the 3 heating zones being adjusted to the following temperatures: 260, 270, 280° C. The extrudate is cooled by drawing it through a water bath and is then granulated. This granulate is repeatedly extruded. After 3 extrusions, the melt index is measured (at 230° C./2.16 kg). A substantial increase in the melt index denotes pronounced chain degradation, i.e. poor stabilization.

[2] = Stabilization of polyethylene during processing (Brabender plastograph); conditions: 0.05 part compound and 0.05 part Irganox 1010 per 100 parts polyethylene; 220° C., 50 rpm; without compound 9.7
Method: 100 parts of polyethylene powder (Lupolen®5260 Z) are blended with 0.05 part of Irganox®1010 (pentaerythritol tetrakis[3-(3,5-di-tert-butyl-4-hydroxyphenyl)propionate]) and 0.05 part of a compound of Table 5 and the blend is kneaded in a Brabender plastograph at 220° C. and 50 rpm. During this time the kneading resistance is recorded continuously as torque. In the course of the kneading time the polymer begins to crosslink after prolonged constancy, as can be determined by the rapid increase in torque. The time taken until a marked increase in torque is shown in Table 5 as a measure of the stabilizing action. The longer this time is the better the stabilizing action.

[3] = Stabilisation of polybutylene terephthalate (impact strength in oven-ageing test at 160° C.); conditions: for Impact strength after 360 h: without stabilizer 26
Method: 1.0 kg of a polybutylene terephthalate powder which has been dried for 10 hours at 100° C. in a vacuum drying oven (Crastin®S600, of Ciba Specialty Chemicals Inc.) is charged with the stabilizers listed in Table 20 and is mixed for 2 minutes in a Henschel mixer. This mixture is then extruded in a twin-screw extruder (type Berstorff) at a maximum of 250° C. and is then granulated. In an injection moulding apparatus, the granulate so obtained is moulded at a maximum of 260° C. to little rods 4×6 mm thick and 50 mm long. These little rods are then aged in a circulating air oven at 160° C. After 360 hours the impact strength of the rods is measured in KJ/m^2. The higher the values, the better the stabilization.

[4] = Stabilization of multiple-extruded polypropylene at high temperature; parameters: unit not given here; conditions: measured at 230° C./2.16 kg
Method: This blend is then extruded in an extruder having a cylinder diameter of 20 mm and a length of 400 mm at 100 rpm, the 3 heating zones being adjusted to the following temperatures: 280, 320, 340° C. The extrudate is cooled by drawing it through a water bath and is then granulated. This granulate is repeatedly extruded. […] A substantial increase in the melt index denotes pronounced chain degradation, i.e. poor stabilization.

[5] = Stabilization of polycarbonate (Weather-O-Meter exposure); conditions: 0.30% stabilizer; Weather-O-Meter WOM CI 65; without stabilizer 30.2
Method: 1.0 kg of a polycarbonate powder which has been dried for 8 hours at 120° C. in a vacuum drying oven (Lexan®145, of General Electric) is charged with the stabilizers listed in Table 21 and is mixed for 2 minutes in a Henschel mixer. This mixture is then extruded in a Schwabenthan extruder at a maximum of 280° C. The polymer string is then granulated. Using an injection moulding machine, plates having a layer thickness of 2 mm are then moulded from the granulate so obtained at a maximum of 300° C. These plates are then irradiated in a Weather-O-Meter (WOM CI 65) for 2500 hours at a black standard temperature of 63° C., at a dry/wet cycle of 102/18 minutes and at an intensity of 0.35 W/m^2 at 340 nm. The yellowness index (YI) of these plates is then determined according to ASTM D 1925-70. Low YI values denote little discoloration, high YI values high discoloration of the plates. […]

[6] = Prevention of migration of the oxidized developer in a color photographic material (three layer test elements, interlayer scavenger); conditions: 20 mg.m^−2 scavenger in interlayer; AGFA P-94 developing process; control without scavenger 0.293
Method: To evaluate compounds of this invention with respect to their ability as interlayer scavengers for oxidized developing agent, three layer photographic test elements are prepared by providing layers in the order indicated on a polyethylene-coated paper support:
(2) An interlayer containing:
The test elements are imagewise exposed through a step wedge with density increment 0.15 and thereafter subjected to the AGFA P-94 developing process.
Upon processing of the test elements, some oxidized developer is prone to migrate from the layer in which it is formed, for example the undermost, magenta-dye-providing layer, to the topmost layer containing the cyan-dye-forming coupler, thereby producing unwanted cyan dye. The amount of cyan dye that is generated depends on the ability of the interlayer to prevent the diffusion of oxidized developer.

[7] = Stabilization of polycarbonate (oven ageing at 135° C., yellowness index and transmission); conditions: 0.01% stabilizer; for Yellowness index prior to oven-ageing: 2 mm plates, ASTM D 1925-70; for Transmission in % prior to oven-aging / Transmission in % after 2000 hours at 135° C.: at 450 nm; for Transmission in % after 2000 hours at 135° C.: without stabilizer 76.4; for Yellowness index after 2000 hours at 135° C.: circulating air oven, without stabilizer 25.0
Method: This mixture is then extruded in a Schwabenthan extruder at a maximum of 280° C. The polymer string is then granulated. Using an injection moulding machine, plates having a layer thickness of 2 mm are then moulded from the granulate so obtained at a maximum of 300° C. […] Low YI values denote little discoloration, high YI values high discoloration of the patterns. […] The results are compiled in Tables 17 and 18.

[8] = Light-colored SBR-vulcanisate, ozone atmosphere for 96 hours: crack formation; parameters: key: grade 0: Grade 0 denotes no cracks; grade 1 denotes narrow flat cracks; grade 2 denotes moderately broad, moderately deep cracks, clearly visible; grade 3 denotes broad and deep cracks; conditions: 2.0 phr stabilizer, ozone 50 pphm, 40° C., dynamic elongation, without stabilizer grade 2
Method: (§1) 100 parts by weight of Cariflex®S-1502 (styrene/butadiene rubber, Shell) are processed at 60° C., in a mixing mill, with 30.0 parts by weight of Kronos®CL 220 [titanium dioxide (pigment), Kronos Titan GmbH], 30.0 parts by weight of Aktisil®MM [kaolin (filler), Hoffmann Mineral, Neuburg/Donau], 5.0 parts by weight of Naftolen®N 401 [plasticiser, Metallgesellschaft], 10.0 parts by weight of zinc oxide [vulcanization activator], 2.0 parts by weight of stearic acid [vulcanization activator], 2.0 parts by weight of sulfur [vulcanizing agent], 1.0 part by weight of Vulkacit®MOZ [vulcanization accelerator, Bayer], 0.25 part by weight of Vulkacit®Thiuram [vulcanization accelerator, […], to form a homogeneous mixture, the vulcanization system (sulfur, Vulkacit®MOZ and Vulkacit®Thiuram) not being added until the end of the mixing process. The mixture is vulcanized in electrical vulcanization presses at 150° C. until T95 is reached in the rheometer curves to form elastomer plates 2 mm thick, 21 cm long and 8.0 cm wide.
Some of the elastomer plates so obtained are tested for the action of ozone according to the ASTM standard D 3395-86 while subject to dynamic elongation. In this test the plates are first stored for 30 days in a standard atmosphere [23/50 SN-ISO 291]. Test specimens measuring 20 cm by 1 cm are then punched out and exposed to an ozone atmosphere for 96 hours (ozone content: 50 pphm; temperature: 40° C.; humidity: 50% rel.; elongation: 0 to 25%; elongation rate: 0.5 Hz; number of load cycles: approximately 173 000). The test plates are then assessed for crack formation according to ASTM D 3395-86. Grade 0 denotes no cracks; grade 1 denotes narrow flat cracks; grade 2 denotes moderately broad, moderately deep cracks, clearly visible; grade 3 denotes broad and deep cracks. The lower the grade number, the better the stabilization of the elastomer plates.

[9] = Light-colored SBR-vulcanisate (Example 23): ΔL-color after 3 weeks in diffuse daylight; conditions: 2.0 phr stabilizer; 3 weeks at room temperature in diffuse daylight; scale 0 to 100, 100 = no discoloration; without stabilizer 97
Method: as §1
The remaining elastomer plates are stored for 3 weeks at room temperature in a standard laboratory atmosphere in diffuse daylight. The ΔL-color of those plates is then determined according to DIN 6167, which corresponds to a scale of from 0 to 100. No discoloration is indicated by a value of 100.

CC(C)(C)c1cc2c(c(C(C)(C)C)c1)OC(=O)C2c1ccc(F)cc1 (stereo not shown) [(105), 5,7-di-tert-butyl-3-(4-fluorophenyl)-3H-benzofuran-2-one]
Melt index after 3 extrusions [1]: 4.7 | Time until increase in torque [2]: 27.0 min | melting point: 146 to 147 °C

Cc1cc(CCC(=O)OCCOCCOCCOC(=O)CCc2cc(C)c(O)c(C(C)(C)C)c2)cc(C(C)(C)C)c1O [Irganox ®245]
Impact strength after 0 h ([3]; 0.05% stabilizer): 132 KJ/m^2 | Impact strength after 360 h ([3]; 0.05% stabilizer): 111 KJ/m^2 | Impact strength after 0 h ([3]; 0.10% stabilizer): 135 KJ/m^2 | Impact strength after 360 h ([3]; 0.10% stabilizer): 114 KJ/m^2

CC(C)(C)c1ccc(OP(Oc2ccc(C(C)(C)C)cc2C(C)(C)C)c2ccc(-c3ccc(P(Oc4ccc(C(C)(C)C)cc4C(C)(C)C)Oc4ccc(C(C)(C)C)cc4C(C)(C)C)cc3)cc2)c(C(C)(C)C)c1 [Sandostab ®P-EPQ, tetrakis(2,4-di-tert-butylphenyl)-4,4′-biphenylene diphosphonite]
Melt index after 5 extrusions ([4]; 280° C., stabilizer 0.050% by weight): 6.3 | Melt index after 5 extrusions ([4]; 320° C., stabilizer 0.050% by weight): 23.9 | Melt index after 5 extrusions ([4]; 340° C., stabilizer 0.050% by weight): 61.5

CCCCCCOc1ccc(-c2nc(-c3ccccc3)nc(-c3ccccc3)n2)c(O)c1 [Tinuvin ®1577]
Yellowness index after 2500 h exposure to light [5]: 11.2

CC(C)(C)CC(C)(C)c1cc(Cc2cc(C(C)(C)CC(C)(C)C)cc(-n3nc4ccccc4n3)c2O)c(O)c(-n2nc3ccccc3n2)c1 [Tinuvin ®360]
Yellowness index after 2500 h exposure to light [5]: 16.6

CC(C)(C)c1cc2c(c(C(C)(C)C)c1)OC(=O)C2c1ccc(C#N)cc1 (stereo not shown) [Compound (106), 5,7-di-tert-butyl-3-(4-cyanophenyl)-3H-benzofuran-2-one]
melting point: 136 to 137 °C

COC(=O)c1ccc(C2C(=O)Oc3c2cc(C(C)(C)C)cc3C(C)(C)C)cc1 (stereo not shown) [Compound (109), 5,7-di-tert-butyl-3-(4-methoxycarbonylphenyl)-3H-benzofuran-2-one]
Cyan density at a magenta density of 1.5 [6]: 0.254 | Melt index after 3 extrusions [1]: 4.8 | Time until increase in torque [2]: 27.5 min

CCCCCCCCCCCCCCCCCCOC(=O)c1ccc(C2C(=O)Oc3c2cc(C(C)(C)C)cc3C(C)(C)C)cc1 (stereo not shown) [Compound (112)]
Yellowness index prior to oven-ageing [7]: 3.5 | Transmission in % prior to oven-aging [7]: 85.9% | Transmission in % after 2000 hours at 135° C. [7]: 81.8% | Yellowness index after 2000 hours at 135° C. [7]: 14.3

CC(C)(C)c1cc2c(c(C(C)(C)C)c1)OC(=O)C2c1ccc(C(F)(F)F)cc1 (stereo not shown) [Compound (101), 5,7-di-tert-butyl-3-(4-trifluoromethyl-phenyl)-3H-benzofuran-2-one]
Cyan density at a magenta density of 1.5 [6]: 0.253 | Melt index after 3 extrusions [1]: 4.7 | Time until increase in torque [2]: 27.5 min | Melt index after 5 extrusions ([4]; 280° C., stabilizer 0.015% by weight): 8.5 | Melt index after 5 extrusions ([4]; 320° C., stabilizer 0.015% by weight): 19.6 | Melt index after 5 extrusions ([4]; 340° C., stabilizer 0.015% by weight): 22.5 | Yellowness index prior to oven-ageing [7]: 3.4 | Transmission in % prior to oven-aging [7]: 85.8% | Transmission in % after 2000 hours at 135° C. [7]: 81.3% | Yellowness index after 2000 hours at 135° C. [7]: 16.4 | Crack formation according to ASTM D 3395-86 [8]: grade 1 | ΔL-color according to DIN 6167 [9]: 95 | melting point: 127 to 128 °C

CC(C)(c1ccccc1)c1cc(-n2nc3ccccc3n2)c(O)c(C(C)(C)c2ccccc2)c1 [Tinuvin ®234]
Yellowness index after 2500 h exposure to light [5]: 17.8
